Laboratory results from patent publication US20260108547A1, “LEVERAGING L-FUCOSE-MEDIATED SIGNALING TO INDUCE MONOCYTE-DERIVED DENDRITIC CELL POLARIZATION” (H. LEE MOFFITT CANCER CENTER AND RESEARCH INSTITUTE, INC., priority 2022, published 2026).

Key:
SW1 tumors = experiment: Flow cytometric profiling of tumors and lymph nodes, SW1 tumors in C3H/HeN mice fed ± L-fucose and treated ± FTY720 (Table 1); type: in vivo, mouse; settings: for average # of CD8 stem central memory cells: tumors
Procedure: Tumors of SW1 or SM1 melanoma cells from […] or C57BL/6 mice, respectively) were digested using 1× tumor digest buffer (0.5 mg/mL Collagenase I, 0.5 mg/mL Collagenase IV, 0.25 mg/mL Hyalyronidase V, 0.1 mg/mL DNAse I in HBSS (Millipore Sigma (St. Louis, MO)). Tumors were homogenized using the Miltenyi MACs dissociator. Red blood cells were lysed using ACK lysis buffer (Life Technologies, (Grand Island, NY)). Tumor homogenate cells were counted using a standard hemocytometer.
Total TILs were gated first to single cells (based on forward scatter height vs width, followed by side scatter height vs. width). Live cells were gated from the Zombie negative population from the population above. TILs were gated based on splenocyte size from a control spleen. Individual immune subpopulations were sub-gated from the total TIL population using the following staining criteria: CD3^+ for CD3^+ T cells; CD3^+/CD4^+/CD8^− for CD4^+T cells; CD3^+/CD4^−/CD8^+ for CD8^+ T cells, CD11c^+/CD11b^+ for DCs; either NK1.1 (for C57/BL6 mice) or DX5 (for C3H/HeJ) for NK cells; CD11b^+/GR1^+ for MDSC-like cells; and F4/80^+ for macrophages. Single-cell suspensions from tumor and spleen tissue were stained with Live/Dead Zombie NIR (Biolegend, (San Diego, CA)) at 1:1,000 in PBS for 20 min. Cell suspensions were spun down and stained with the following with antibodies at 0.5 μg/ml per antibody: APC anti-mouse CD3, Pacific Blue anti-mouse CD4, BV785 anti-mouse CD8, PerCP anti-mouse CD25, FITC anti-mouse F4/80, PeCy7 anti-mouse CD11c, PE anti-mouse NK1.1 or PE anti-mouse DX5, and PerCP-Cy5.5 anti-mouse CD11b. After staining, the cells were washed and fixed (2% formaldehyde), followed by another wash and flow cytometric analysis. The compensation controls were prepared using 0.5 μg/mL of each antibody with UltraComp eBeads, (ThermoFisher Scientific (Waltham, MA)). All samples were subject to flow cytometric profiling using a LSR Flow Cytometer (BD Biosciences (San Jose, CA)) and analysis as indicated using FlowJo software (BD Biosciences (San Jose, CA)).
For all mouse models, 1×10^6 melanoma cells were injected subcutaneously in the right hind flanks of each mouse. […] This dosage is within ranges for dietary supplementation with L-fucose and other similar dietary sugars (e.g., D-mannose) in other rodent studies. When the tumors reached −2 cm^3, the animals were sacrificed, and the tumors either processed for flow cytometric profiling or for histological analysis as indicated.
Control vs. L-fucose±FTY720 models (FIG. 2): SW1 or SM1 mouse melanoma cells were injected into syngeneic C3H/HeN (or NSG) female or C57BL/6 male mice, respectively. Cells were injected as follows: parental SW1 cells for FIG. 1A; parental SM1 cells for FIG. 1E; SW1 cells stably expressing either empty vector (EV) or mouse fucose kinase (mFuk) for FIG. 1L; and parental SW1 cells for FIG. 1M. FTY720 was administered at 20 μg every 2 days starting on Day 12, just prior to the initiation of LF, until endpoint.

PD-L1 = experiment: Flow cytometric assessment of cell surface PD-L1, mouse melanoma cells (SW1, SM1); type: cell-based
Procedure: Indicated cells were treated for 72 h with DMSO, 250 μM fucosyltransferase inhibitor (FUTi) (Millipore Sigma (St. Louis, MO)), or 250 μM of L-fucose (Biosynth (Oak Terrace, IL)). After 72 h, cells were stained with 0.1 μM PKH26 (Millipore Sigma (St. Louis, MO)) prior to fixation in 4% formaldehyde solution. The cells were stained with anti-HLA-DRB1 and fluorescein AAL, or anti-human or anti-mouse PD-L1 overnight. The following day the cells were washed 3 times prior to adding AlexaFluor 594 donkey anti-rabbit. Cells were washed 3 times and then subject to flow cytometric analyses using a FACSCalibur (BD Biosciences (San Jose, CA)). Samples were analyzed using FlowJo analysis software (BD Biosciences (San Jose, CA)). Median values of DRB1 and AAL were normalized to PKH26 values and statistical analysis was performed using GraphPad Prism.

moDCs = experiment: moDC dendrite length, phagocytosis (bead uptake) and Fitc-dextran uptake; type: cell-based
Excerpt: Our preliminary studies have begun to dissect and highlight moDC signaling changes induced by L-fuc treatment. Here, we present and discuss our novel findings on L-fuc-induced DC/moDC biology, the key mechanistic signaling changes that mediate these effects, and the important translational implications of these findings for efforts aimed at increasing/enhancing intratumoral DC function and anti-tumor immune responses.
Next we wanted to determine if L-fucose enhances the function phenotype of moDCs. […] Having determined that L-fucose alters the signaling of moDCs leading to an immunostimulatory phenotype, we next sought to identify other components of DC biology that are affected. To this end we examined L-fucose-treated mature dendritic cells for changes in (FIG. 26A) dendrite length and (FIG. 26B) phagocytosis by neutral bead uptake which may correlate with differential anti-tumor capacity in the TME.

SW1 tumor cells = experiment: Co-culture of pretreated moDCs with GFP-expressing SW1 tumor cells (GFP loss, LDH release); type: cell-based, mouse; settings: loss of GFP fluorescence
Excerpt: We next sought to determine if the change in phagocytosis we observe in the bead uptake assay was accompanied with increased cytotoxic tendencies in the L-fucose-treated moDCs. To this end we co-cultured pretreated moDCs with GFP-expressing SW1 tumor cells to observe (FIG. 26C) loss of GFP fluorescence correlating with SW1 and (FIG. 26D) release of LDH as markers of cell death.

[1] = Mouse models of tumor growth and metastasis, dietary L-fucose supplementation; type: in vivo

C[C@H](O)[C@@H](O)[C@@H](O)[C@H](O)C=O [L-fucose]
average # of CD8 stem central memory cells (SW1 tumors; Day 28): 0.00 per 10^6 cells
average # of CD8 stem central memory cells (SW1 tumors; Day 42): 0.00 per 10^6 cells
intratumoral CD4+T central and effector memory subpopulations (SW1 tumors; SW1 model ± FTY720): increases
cytotoxic CD4+T cells (SW1 tumors; midpoint (Day 28)): transiently but significantly increased
intratumoral monocyte-derived DCs (moDCs) and lymph node cDC2s (SW1 tumors; oral L-fuc, SW1 model): significant, albeit transient, increases
cell surface levels of PD-L1 (PD-L1): does not alter
dendrite length of moDCs (moDCs): increased
uptake of exogenous Fitc-dextran bait by L-fuc-induced moDCs (moDCs; compared with untreated DCs): significantly increased rate
phagocytosis of moDCs (moDCs; neutral bead uptake): increased
phenotype of moDCs in co-culture with SW1 tumor cells (SW1 tumor cells): cytotoxic-like phenotype
blocks tumor growth and metastasis [1]: > 50%
